Experimental data taken from patent US9982016B2, “NPR-B agonists” (priority 2009, dated 2018).
Read-outs that look alike come from different tables or passages of the source. Numbered stars: 1 amine (or outer) side, 2 acyl side, 3 side chain; on linkers, the order of the positions; unused ones are H or OH. Square brackets hold non-standard residues; d marks the D form. Peptide text beside a SMILES is read from it. * marks the point of attachment. Pro(4R-NH2) = N[C@H]1CN[C@H](C(=O)O)C1; X2 = O=C([C@H]1CCCN([*:1])C1)[*:2]; NMeR = CN[C@@H](CCCNC(=N)N)C(=O)O; X1 = CCCCCCCCN1CCC[C@H](C(=O)*)C1; dDap(Me2) = CN(C)C[C@@H](N)C(=O)O; Hyp = O=C(O)[C@@H]1C[C@@H](O)CN1; NMeF = CN[C@@H](Cc1ccccc1)C(=O)O; NMeL = CN[C@@H](CC(C)C)C(=O)O; Octanoyl = CCCCCCCC(=O)*

Assays:
NPR-B = target: T1, NPR-B (Homo sapiens, UniProt P20594); assay: NPR-B induced production of cyclic GMP in human glaucoma trabecular meshwork cells (GTM-3); format: cell-based
T1 construct: endogenously NPR-B expressing GTM-3 cells; endogenous in cells; host or cells: GTM-3 (human glaucoma trabecular meshwork cells)
T1 sequence (P20594 23-1047): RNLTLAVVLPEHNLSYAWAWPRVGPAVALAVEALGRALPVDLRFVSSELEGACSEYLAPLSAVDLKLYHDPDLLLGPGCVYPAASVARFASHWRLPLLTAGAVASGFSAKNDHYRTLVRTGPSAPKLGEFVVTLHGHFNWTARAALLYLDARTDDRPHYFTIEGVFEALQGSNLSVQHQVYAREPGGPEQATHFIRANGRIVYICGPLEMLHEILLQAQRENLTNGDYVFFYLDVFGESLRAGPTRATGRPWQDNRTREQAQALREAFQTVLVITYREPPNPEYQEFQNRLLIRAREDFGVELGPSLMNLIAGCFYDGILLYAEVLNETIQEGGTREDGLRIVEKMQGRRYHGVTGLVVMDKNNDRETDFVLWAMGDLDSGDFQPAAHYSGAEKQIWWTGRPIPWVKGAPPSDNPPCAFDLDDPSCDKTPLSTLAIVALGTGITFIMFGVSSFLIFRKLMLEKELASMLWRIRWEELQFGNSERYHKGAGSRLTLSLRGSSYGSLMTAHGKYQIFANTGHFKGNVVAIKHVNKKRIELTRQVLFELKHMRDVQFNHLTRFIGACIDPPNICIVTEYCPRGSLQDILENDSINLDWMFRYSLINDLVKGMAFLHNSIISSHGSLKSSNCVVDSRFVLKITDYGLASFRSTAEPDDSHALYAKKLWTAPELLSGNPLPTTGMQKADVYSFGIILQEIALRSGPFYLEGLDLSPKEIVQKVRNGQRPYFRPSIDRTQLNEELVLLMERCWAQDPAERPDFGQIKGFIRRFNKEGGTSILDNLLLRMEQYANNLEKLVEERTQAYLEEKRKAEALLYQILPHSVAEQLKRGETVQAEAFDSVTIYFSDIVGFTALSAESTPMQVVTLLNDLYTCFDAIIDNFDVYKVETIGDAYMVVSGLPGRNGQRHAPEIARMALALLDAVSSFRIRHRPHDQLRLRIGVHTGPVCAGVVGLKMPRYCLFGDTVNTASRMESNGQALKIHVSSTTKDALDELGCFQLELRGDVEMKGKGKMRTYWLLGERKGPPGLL

[1] = test system: human colon adenocarcinoma cells; conditions: 1 mM, within 24 h; cited from earlier work
[2] = test system: human renal carcinoma cells; conditions: 100 μM; cited from earlier work
chondrocytes = conditions: low doses 10 to 100 pM, at the highest dose; cited from earlier work
[3] = NPR-B activation in GTM-3 cells, group set by EC50 and Emax (CNP = 100%), read-out: Activity (group)

SMILES	EC50 (NPR-B; [3]) [nM]	further results
CC[C@H](C)[C@@H]1NC(=O)[C@H](CCCNC(=N)N)NC(=O)[C@H](CC(=O)O)NC(=O)[C@H](CCSC)NC(=O)[C@H](CCCNC(=N)N)NC(=O)CNC(=O)CNC(=O)[C@H](Cc2ccccc2)NC(=O)[C@@H](NC(=O)[C@H](CO)NC(=O)[C@H](CO)NC(=O)[C@H](CCCNC(=N)N)NC(=O)[C@H](CCCNC(=N)N)NC(=O)[C@H](CC(C)C)NC(=O)[C@@H](N)CO)CSSC[C@@H](C(=O)N[C@@H](CC(N)=O)C(=O)N[C@@H](CO)C(=O)N[C@@H](Cc2ccccc2)C(=O)N[C@@H](CCCNC(=N)N)C(=O)N[C@@H](Cc2ccc(O)cc2)C(=O)O)NC(=O)CNC(=O)[C@H](CC(C)C)NC(=O)CNC(=O)[C@H](CO)NC(=O)[C@H](CCC(N)=O)NC(=O)[C@H](C)NC(=O)CNC1=O [ANP, atrial natriuretic peptide]	–	decrease in cell number [1]: up to 97%
CC[C@H](C)[C@@H]1NC(=O)[C@H](CCCNC(=N)N)NC(=O)[C@H](CC(=O)O)NC(=O)[C@H](CC(C)C)NC(=O)[C@H](CCCCN)NC(=O)[C@H](CC(C)C)NC(=O)CNC(=O)[C@H](Cc2ccccc2)NC(=O)[C@@H](NC(=O)CNC(=O)[C@H](CCCCN)NC(=O)[C@H](CO)NC(=O)[C@H](CC(C)C)NC(=O)CN)CSSC[C@@H](C(=O)O)NC(=O)CNC(=O)[C@H](CC(C)C)NC(=O)CNC(=O)[C@H](CO)NC(=O)[C@H](CCSC)NC(=O)[C@H](CO)NC(=O)CNC1=O [CNP, C-type natriuretic peptide]	–	decrease in cell number [2]: 10%; increase in cellularity (chondrocyte proliferation) (chondrocytes): up to 43%
CC[C@H](C)[C@@H]1NC(=O)[C@H](CCCNC(=N)N)NC(=O)[C@H](CC(=O)O)NC(=O)[C@H](CCSC)NC(=O)[C@H](CCCNC(=N)N)NC(=O)CNC(=O)CNC(=O)[C@H](Cc2ccccc2)NC(=O)[C@H](Cc2c[nH]cn2)NC(=O)[C@@H](NC(=O)[C@@H](N)CCSC)CSSC[C@@H](C(=O)N[C@@H](Cc2ccc(O)cc2)C(=O)N[C@@H](CCCNC(=N)N)C(N)=O)NC(=O)[C@H](CO)NC1=O [mini-ANP, reference compound] (HELM PEPTIDE1{M.C.H.F.G.G.R.M.D.R.I.S.C.Y.R.[am]}$PEPTIDE1,PEPTIDE1,2:R3-13:R3$$$V2.0)	–	EC50 (NPR-B; GTM-3 cells, 4-Parameter Logistic Equation, highest concentration 45 μM, FIG. 2, read-out: EC50, cyclic GMP production in GTM-3 cells): > 45000 nM

Further lines, with some results ahead:

EC50 (NPR-B; [3]) [nM]	SMILES	further results
< 1000	CCCCCCCC(=O)N1CCC[C@H](C(=O)N(C)[C@@H](Cc2ccccc2)C(=O)N[C@H](CN(C)C)C(=O)N[C@@H](CC(C)C)C(=O)N2C[C@H](O)C[C@H]2C(=O)N(C)[C@@H](CC(C)C)C(=O)N[C@@H](CC(=O)O)C(=O)N[C@@H](CCCNC(=N)N)C(=O)N[C@H](C(N)=O)[C@@H](C)CC)C1 [JAL-1579, Occ-Sni-Nmf-dap(Me2)-Leu-Hyp-Nml-Asp-Arg-Ile-NH2] (Octanoyl-[X2][NMeF][dDap(Me2)]L[Hyp][NMeL]DRI-NH2)	–
< 1000	CCCCCCCCN1CCC[C@H](C(=O)N[C@@H](Cc2ccccc2)C(=O)N[C@H](CN(C)C)C(=O)N[C@@H](CC(C)C)C(=O)N2C[C@H](O)C[C@H]2C(=O)N(C)[C@@H](CC(C)C)C(=O)N[C@@H](CC(=O)O)C(=O)N[C@@H](CCCNC(=N)N)C(=O)N[C@H](C(N)=O)[C@@H](C)CC)C1 [JAL-1429, Oct-Sni-Phe-dap(Me2)-Leu-Hyp-Nml-Asp-Arg-Ile-NH2] (HELM PEPTIDE1{[CCCCCCCCN1CCC[C@H](C(=O)[*:2])C1].F.[CN(C)C[C@@H](N[*:1])C(=O)[*:2]].L.[Hyp].[meL].D.R.I.[am]}$$$$V2.0)	–
< 1000	CCCCCCCC(=O)N1CCC[C@H](C(=O)N[C@@H](Cc2ccccc2)C(=O)N[C@H](CN(C)C)C(=O)N[C@@H](CC(C)C)C(=O)N2C[C@H](O)C[C@H]2C(=O)N(C)[C@@H](CC(C)C)C(=O)N[C@@H](CC(=O)O)C(=O)N(C)[C@@H](CCCNC(=N)N)C(=O)N[C@H](C(N)=O)[C@@H](C)CC)C1 [JAL-1576, Occ-Sni-Phe-dap(Me2)-Leu-Hyp-Nml-Asp-Nmr-Ile-NH2] (Octanoyl-[X2]F[dDap(Me2)]L[Hyp][NMeL]D[NMeR]I-NH2)	–
< 1000	CCCCCCCCN1CCC[C@H](C(=O)N[C@@H](Cc2ccccc2)C(=O)N[C@H](CN(C)C)C(=O)N[C@@H](CC(C)C)C(=O)N2C[C@H](N)C[C@H]2C(=O)N(C)[C@@H](CC(C)C)C(=O)N[C@@H](CC(=O)O)C(=O)N[C@@H](CCCNC(=N)N)C(=O)N[C@H](C(N)=O)[C@@H](C)CC)C1 [JAL-1369, Oct-Sni-Phe-dap(Me2)-Leu-Tap-Nml-Asp-Arg-Ile-NH2] (X1-F[dDap(Me2)]L[Pro(4R-NH2)][NMeL]DRI-NH2)	–
< 1000	CCCCCCCC(=O)N1CCC[C@H](C(=O)N[C@@H](Cc2ccccc2)C(=O)N[C@H](CN(C)C)C(=O)N[C@@H](CC(C)C)C(=O)N2C[C@H](O)C[C@H]2C(=O)N(C)[C@@H](CC(C)C)C(=O)N[C@@H](CC(=O)O)C(=O)N2CCC[C@H]2C(=O)N[C@H](C(N)=O)[C@@H](C)CC)C1 [JAL-1580, Occ-Sni-Phe-dap(Me2)-Leu-Hyp-Nml-Asp-Pro-Ile-NH2] (Octanoyl-[X2]F[dDap(Me2)]L[Hyp][NMeL]DPI-NH2)	–
< 1000	CCCCCCCC(=O)N[C@H](C)C(=O)N[C@@H](Cc1ccccc1)C(=O)N[C@H](CC(C)C)C(=O)N[C@@H](CC(C)C)C(=O)N1C[C@H](O)C[C@H]1C(=O)N(C)[C@@H](CC(C)C)C(=O)N[C@@H](C(=O)N[C@@H](CCCNC(=N)N)C(=O)N[C@H](C(N)=O)[C@@H](C)CC)c1cccs1 [JAL-1558, Occ-ala-Phe-leu-Leu-Hyp-Nml-(BB727)-Arg-Ile-NH2] (HELM PEPTIDE1{[CCCCCCCC(=O)[*:2]].[dA].F.[dL].L.[Hyp].[meL].[O=C([C@H](N[*:1])c1cccs1)[*:2]].R.I.[am]}$$$$V2.0)	–
